Results as given in US12208160B2, “Pharmaceutical compositions comprising coated API” (Catalent U.K. Swindon Zydis Limited, priority 2020, dated 2025).

How the values were obtained:
[1] = Low volume dissolution of Acetaminophen raw material and coated Acetaminophen material; type: physicochemical; conditions: APAP
Protocol: This analytical method is used to determine the low volume dissolution of Acetaminophen raw material and coated Acetaminophen material. […] The following is the working standard 5-point calibration curve preparation for this Example. Calibration Point 1: Weigh accurately 50.0 mg of Acetaminophen reference standard into a 100 mL volumetric flask. Dissolve in approximately 80 mL of dissolution media and sonicate until fully dissolved. Dilute to volume with dissolution media mixing thoroughly. This is the calibration point 1 working standard solution (concentration: approximately 0.5 mg/mL). Calibration Point 2: Weigh accurately 100.0 mg of Acetaminophen reference standard into a 100 mL volumetric flask. Dissolve in approximately 80 mL of dissolution media and sonicate until fully dissolved. Dilute to volume with dissolution media mixing thoroughly. This is the calibration point 2 working standard solution (concentration: approximately 1.0 mg/mL). Calibration Point 3: Weigh accurately 200.0 mg of Acetaminophen reference standard into a 100 mL volumetric flask. Dissolve in approximately 80 mL of dissolution media and sonicate until fully dissolved. Dilute to volume with dissolution media mixing thoroughly. This is the calibration point 3 working standard solution (concentration: approximately 2.0 mg/mL). Calibration Point 4: Weigh accurately 500.0 mg of Acetaminophen reference standard into a 100 mL volumetric flask. Dissolve in approximately 80 mL of dissolution media and sonicate until fully dissolved. Dilute to volume with dissolution media mixing thoroughly. This is the calibration point 4 working standard solution (concentration: approximately 5.0 mg/mL). Calibration Point 5: Weigh accurately 550.0 mg of Acetaminophen reference standard into a 100 mL volumetric flask. Dissolve in approximately 80 mL of dissolution media and sonicate until fully dissolved (this standard solution may require slight heating to dissolve all Acetaminophen). If required, allow the solution to equilibrate to room temperature, dilute to volume with dissolution media and mix thoroughly. This is the calibration point 5 working standard solution (concentration: approximately 5.5 mg/mL). Acetaminophen raw material: Six samples are analyzed. […] The individual software potencies for each vessel will be input into the DissoPRO software at the start of experiment. Six samples are analyzed. For each sample, weigh accurately 125 mg of coated Acetaminophen material into a Pion low volume dissolution vessel. The individual software potencies for each vessel will be input into the DissoPRO software at the start of experiment. […] The Coated APAP has undergone coating at bench scale operation using the Resonance Acoustic Mixing manufacturing process. […] The slow release profile is indicative of achieving a successful coating and preventing the API from readily dissolving and therefore a taste masked API.

[2] = Mid Volume Dissolution (MVD) 60-Minute Profile of freeze-dried finished product; type: physicochemical; conditions: within ~5 mins; note to FIG. 26
Protocol: This analytical method is used to determine the mid-volume dissolution of freeze-dried finished products. The method employs a Distek small volume conversion kit. The method employs the Pion Rainbow Dynamic Dissolution Monitor (RDDM) at 75 rpm, with pH 7.2 phosphate buffer as a dissolution medium. Analysis is by fibre optic UV detection using the Pion μDISS Profiler with a UV detection under the 2nd derivative function using a 2 mm pathlength. Pathlength, dissolution media and wavelength range will vary depending on the API properties. […] A five-point calibration Curve is set up on the Pion software. The amount of API reference standard weighed will be dependent on the API. The following is an example for Ibuprofen:
As per USP <711>—A small, loose piece of non-reactive material, such as not more than a few turns on wire helix, may be attached to the freeze-dried tablets that would otherwise float. Add one freeze-dried tablet to each of the six dissolution vessels. The six probes will measure the absorbance of the API in the vessels and determine the % drug dissolved based on the calibration curve.
An additional methodology Mid Volume Dissolution (MVD) based on the 60-minute profile for the coated API has been developed to be able to directly compare dissolution profiles of the coated API with the resulting finished product units. […]

SMILES	% Acetaminophen dissolved ([1]; 0.0 minutes) [%]	% Acetaminophen dissolved ([1]; 5 minutes) [%]	% Acetaminophen dissolved ([1]; 10 minutes) [%]	% Acetaminophen dissolved ([1]; 15 minutes) [%]	% Acetaminophen dissolved ([1]; 20 minutes) [%]	% Acetaminophen dissolved ([1]; 25 minutes) [%]	% Acetaminophen dissolved ([1]; 30 minutes) [%]	equilibrium point (% dissolved) ([1]; within the first two minutes)	full release [2] [%]
CC(=O)Nc1ccc(O)cc1 [Raw Material - AN190319, Acetaminophen]	0	127	128	128	128	128	128	over 100%	
CC(C)Cc1ccc(C(C)C(=O)O)cc1 (stereo not drawn) [Raw Material, Ibuprofen]									~80
